Source: patent publication US12029217B2, “Safened compositions comprising pyridine carboxylate herbicides and isoxadifen” (Corteva Agriscience LLC, priority 2018, dated 2024)

What was measured:
Type in all cases: in vivo
[1] = test system: Matricaria chamomilla (wild chamomile); experiment: Greenhouse postemergence visual injury, wild chamomile (MATCH); conditions: Compound A 20 g/ha, Example 1
Source text: (§1) Seeds of the desired test plant species were planted in a 90:10% v/v (volume/volume) mixture of PRO-MIX® BX (Premier Tech Horticulture, Quakertown, PA, USA) and PROFILE® GREENS GRADE™ (Profile Products LLC, Buffalo Grove, IL, USA) planting mixture, which typically has a pH of 5.2 to 6.2 and an organic matter content of at least 50 percent, in plastic pots with a surface area of 103.2 square centimeters (cm^2). When required to ensure good germination and healthy plants, a fungicide treatment and/or other chemical or physical treatment was applied. The plants were grown for 7-36 days (d) in a greenhouse with an approximate 14-hour (h) photo-period which was maintained at about 23° C. during the day and 22° C. during the night. Nutrients and water were added on a regular basis and supplemental lighting was provided with overhead metal halide 1000-Watt lamps as necessary. The plants were employed for testing when they reached the second or third true leaf stage.
(§2) Emulsifiable concentrates of each of each pyridine carboxylate herbicide (Compound A or Compound B) were prepared at 100 grams acid equivalent per liter (g ae/L). An aliquot of each emulsifiable concentrate was placed in a 25 mL glass vial and diluted with an aqueous mixture of 1.25% (v/v) ACTIROB® B esterified rapeseed oil (Bayer Crop Science, Research Triangle Park, NC, USA) or MSO® Concentrate with LECI-TECH® methylated soybean oil (Loveland Products, Loveland, CO, USA) to obtain concentrated stock solutions at the highest application rate for each herbicide, based upon a 12 milliliter (mL) application volume at a rate of 187 liters per hectare (L/ha). The concentrated stock solutions were further diluted with an aqueous mixture of 1.25% v/v ACTIROB® B or MSO® Concentrate with LECI-TECH® to obtain stock solutions at reduced application rates for each herbicide. Spray solutions of the herbicide combinations (Compound A or Compound B plus safener) were prepared by adding weighed amounts or aliquots of the safener to the stock solutions of Compound A or Compound B to form 12-mL spray solutions in two-way combinations.
(§3) The spray solutions were applied to the plant material with an overhead Mandel track sprayer equipped with 8002E nozzles calibrated to deliver 187 L/ha over an application area of 0.503 square meters (m^2) at a spray height of 18 inches (43 centimeters (cm)) above the average plant canopy. […]
(§4) The treated plants and control plants were placed in a greenhouse as described above and watered by sub-irrigation to prevent wash-off of the test compounds. After 20-22 d, the condition of the test plants as compared with that of the control plants was determined visually and scored on a scale of 0 to 100 percent where 0 corresponds to no injury and 100 corresponds to complete kill.

[2] = test system: Salsola kali (Russian thistle); experiment: Greenhouse postemergence visual injury, Russian thistle (SASKR); conditions: Compound A 20 g/ha, Example 1
Source text: as §1, §2, §3, §4

[3] = test system: Saccharum officinarum (sugarcane); experiment: Greenhouse postemergence visual injury, sugarcane (SACOF); conditions: Example 3
Source text: as §1, §2
(§5) The spray solutions were applied to the plant material with an overhead Mandel track sprayer equipped with 8002E nozzles calibrated to deliver 187 L/ha over an application area of 0.503 square meters (m^2) at a spray height of 18 inches (43 centimeters (cm)) above the average plant canopy. Control plants were sprayed in the same manner with the solvent blank. All herbicide (component a) application rates are given as “g ae/ha” and all safener (component b) application rates are given as “g ai/ha.”
as §4

[4] = test system: Cyperus esculentus (nutsedge); experiment: Greenhouse postemergence visual injury, nutsedge (CYPES)
Source text: as §1, §2, §5, §4

[5] = test system: Helianthus annuus (common sunflower); experiment: Greenhouse postemergence visual injury, common sunflower (HELAN)
Source text: as §1, §2, §5, §4

[6] = test system: Zea mays (maize); experiment: Greenhouse postemergence visual injury, maize (ZEAMX)
Source text: as §1, §2, §5, §4

[7] = test system: Sorghum vulgare (sorghum); experiment: Greenhouse postemergence visual injury, sorghum (SORVU); conditions: Compound A 40 g/ha, Example 5
Source text: as §1, §2, §5, §4

[8] = test system: Alopecurus myosuroides (blackgrass); experiment: Greenhouse postemergence visual injury, blackgrass (ALOMY); conditions: Compound A 20 g/ha, Example 6
Source text: as §1, §2, §3, §4

[9] = test system: Avena fatua (wild oat); experiment: Greenhouse postemergence visual injury, wild oat (AVEFA); conditions: Compound A 20 g/ha, Example 6
Source text: as §1, §2, §3, §4

[10] = test system: Cirsium arvense (Canada thistle); experiment: Greenhouse postemergence visual injury, Canada thistle (CIRAR); conditions: Compound A 20 g/ha, Example 6
Source text: as §1, §2, §3, §4

[11] = test system: Digitaria sanguinalis (large crabgrass); experiment: Greenhouse postemergence visual injury, large crabgrass (DIGSA)
Source text: as §1, §2, §5, §4

[12] = test system: Glycine max (soybean); experiment: Greenhouse postemergence visual injury, soybean (GLXMA)
Source text: as §1, §2, §5, §4

[13] = test system: Ipomoea hederacea (ivyleaf morningglory); experiment: Greenhouse postemergence visual injury, ivyleaf morningglory (IPOHE); conditions: Compound A 20 g/ha, Example 6
Source text: as §1, §2, §3, §4

[14] = test system: Kochia scoparia (kochia); experiment: Greenhouse postemergence visual injury, kochia (KCHSC); conditions: Compound A 20 g/ha, Example 6
Source text: as §1, §2, §3, §4

[15] = test system: Leptochloa chinensis (Chinese sprangletop); experiment: Greenhouse postemergence visual injury, Chinese sprangletop (LEFCH); conditions: Compound A 20 g/ha, Example 6
Source text: as §1, §2, §3, §4

[16] = test system: Polygonum convolvulus (wild buckwheat); experiment: Greenhouse postemergence visual injury, wild buckwheat (POLCO); conditions: Compound A 20 g/ha, Example 6
Source text: as §1, §2, §3, §4

[17] = test system: Setaria faberi (giant foxtail); experiment: Greenhouse postemergence visual injury, giant foxtail (SETFA)
Source text: as §1, §2, §5, §4

[18] = test system: Viola tricolor (wild pansy); experiment: Greenhouse postemergence visual injury, wild pansy (VIOTR); conditions: Compound A 20 g/ha, Example 6
Source text: as §1, §2, §3, §4

[19] = test system: Eleusine indica (goosegrass); experiment: Greenhouse postemergence visual injury, goosegrass (ELEIN); conditions: Example 7
Source text: as §1, §2, §3, §4

SMILES: N#CCOC(=O)c1nc(-c2ccc3cc[nH]c3c2F)c(F)c(N)c1Cl [Compound A, cyanomethyl 4-amino-3-chloro-5-fluoro-6-(7-fluoro-1H-indol-6-yl)pyridine-2-carboxylate]
- % visual injury, Ob [1]: 50%
- % visual injury, Ob [2]: 60%
- % visual injury, Ob ([3]; Compound A 5 g/ha): 18%
- % visual injury, Ob ([3]; Compound A 10 g/ha): 48%
- % visual injury, Ob ([3]; Compound A 20 g/ha): 55%
- % visual injury, Ob ([3]; Compound A 40 g/ha): 60%
- % visual injury, Ob ([4]; Compound A 20 g/ha, Example 6): 30%
- % visual injury, Ob ([4]; Compound A 40 g/ha, Example 4): 73%
- % visual injury, Ob ([4]; Compound A 40 g/ha, Example 5): 73%
- % visual injury, Ob ([5]; Compound A 20 g/ha, Example 6): 95%
- % visual injury, Ob ([5]; Compound A 40 g/ha, Example 4): 100%
- % visual injury, Ob ([5]; Compound A 40 g/ha, Example 5): 100%
- % visual injury, Ob ([6]; Compound A 10 g/ha, Example 7): 48%
- % visual injury, Ob ([6]; Compound A 20 g/ha, Example 6): 13%
- % visual injury, Ob ([6]; Compound A 20 g/ha, Example 7): 60%
- % visual injury, Ob ([6]; Compound A 40 g/ha, Example 5): 55%
- % visual injury, Ob [7]: 50%
- % visual injury, Ob [8]: 0%
- % visual injury, Ob [9]: 0%
- % visual injury, Ob [10]: 95%
- % visual injury, Ob ([11]; Compound A 10 g/ha, Example 7): 28%
- % visual injury, Ob ([11]; Compound A 20 g/ha, Example 6): 30%
- % visual injury, Ob ([11]; Compound A 20 g/ha, Example 7): 40%
- % visual injury, Ob ([12]; Compound A 10 g/ha, Example 7): 100%
- % visual injury, Ob ([12]; Compound A 20 g/ha, Example 6): 100%
- % visual injury, Ob ([12]; Compound A 20 g/ha, Example 7): 100%
- % visual injury, Ob [13]: 0%
- % visual injury, Ob [14]: 97%
- % visual injury, Ob [15]: 60%
- % visual injury, Ob [16]: 100%
- % visual injury, Ob ([17]; Compound A 10 g/ha, Example 7): 85%
- % visual injury, Ob ([17]; Compound A 20 g/ha, Example 6): 65%
- % visual injury, Ob ([17]; Compound A 20 g/ha, Example 7): 95%
- % visual injury, Ob [18]: 30%
- % visual injury, Ob ([19]; Compound A 10 g/ha): 73%
- % visual injury, Ob ([19]; Compound A 20 g/ha): 93%
